# How the values were obtained:
# Autotaxin [1] = biological target: T1, Autotaxin (Homo sapiens, UniProt Q13822); test: Inhibition of human ATX using LPC as substrate measured after 2 hrs by fluorescence based choline release assay
# Autotaxin [2] = biological target: T1, Autotaxin; test: Inhibition of human ATX using FS-3 as substrate measured after 1 hrs by fluorescence based […] assay
# Autotaxin [3] = biological target: T1, Autotaxin; test: Inhibition of human ATX using LPC as substrate assessed as choline release measured after 1.5 hrs by fluorescence based assay
# Autotaxin [4] = biological target: T1, Autotaxin; test: Inhibition of recombinant human ATX expressed in Sf9 cells using FS-3 as substrate measured after 1 hrs by fluorescence based assay
# Autotaxin [5] = biological target: T1, Autotaxin; test: Inhibition of ATX (unknown origin) using FS-3 as substrate
# Autotaxin [6] = biological target: T1, Autotaxin; test: Inhibition of ATX in human blood; type: tissue-based
# Autotaxin [7] = biological target: Autotaxin (Mus musculus, UniProt Q9R1E6); test: Inhibition of ATX in mouse plasma; type: cell-free
# Autotaxin [8] = biological target: T1, Autotaxin; test: Inhibition of ATX (unknown origin) using […] as substrate
# Autotaxin [9] = biological target: T1, Autotaxin; test: Inhibition of human ATX using LPC as substrate preincubated for 30 mins followed by substrate addition measured after 90 mins by choline release assay
# [10] = Inhibition of hen egg white ATX using LPC as substrate preincubated for 30 mins followed by substrate addition measured after 90 mins by choline release assay; set-up: species or system Gallus gallus
smiles,measurement,setting,value
O=C(Nc1ccc(Br)cc1)c1cc(S(=O)(=O)N2CCCCC2)c(Cl)cc1Cl,IC50,Autotaxin [1],23 nM
same,IC50,Autotaxin [2],21 nM
Cc1c(Sc2cccc(C(=O)O)c2F)c2ccc(Cl)c(F)c2n1C(=O)N1CC2(CC2)c2ccccc21,IC50,Autotaxin [3],2 nM
CS(=O)(=O)N(c1cc(C(=O)Nc2cc(F)c(Cl)c(F)c2)c(Cl)cc1Cl)C1CCOCC1,IC50,Autotaxin [4],218 nM
CCc1nc2c(C)cc(-c3ccc(C(=O)N4CCN(CCO)CC4)cc3)cn2c1NC(=O)OCc1ccc2c(c1)OCO2,IC50,Autotaxin [5],2.7 nM
CCCn1cc(-n2c(C)c(Sc3cccc(C(=O)O)c3F)c3ccc(Cl)c(F)c32)cn1,IC50,Autotaxin [6],8.9 nM
same,IC50,Autotaxin [7],22 nM
same,IC50,Autotaxin [8],1.1 nM
N#CC1=C(N)Oc2n[nH]c(-c3ccc(OCc4ccc(F)cc4)cc3)c2[C@H]1c1ccc(Cl)c(Cl)c1,IC50,Autotaxin [9],134 nM
same,IC50,[10],87 nM
CS(=O)(=O)N(c1cc(C(=O)Nc2cc(F)c(F)c(F)c2)c(Cl)cc1Cl)C1CCOCC1,IC50,Autotaxin [4],219 nM
O=C(Nc1cccc(F)c1)c1cc(S(=O)(=O)N2CCOCC2)c(Cl)cc1Cl,IC50,Autotaxin [1],43.6 nM
